Experimental data reported in patent US9242970B2 (ACTELION PHARMACEUTICALS LTD., priority 2010, dated 2016).
Read-outs that look alike come from different tables or passages of the source.

Experiments:
human orexin-1 receptor = human orexin-1 receptor (Homo sapiens (Human), UniProt O43613); test: In vitro assay: intracellular calcium measurements (FLIPR), antagonistic activity; assay type: cell-based; conditions: CHO cells, 3 nM orexin-A, marked values are geometric means of n = 2-6, read-out: IC50 OX1
Sequence of human orexin-1 receptor (O43613 whole entry): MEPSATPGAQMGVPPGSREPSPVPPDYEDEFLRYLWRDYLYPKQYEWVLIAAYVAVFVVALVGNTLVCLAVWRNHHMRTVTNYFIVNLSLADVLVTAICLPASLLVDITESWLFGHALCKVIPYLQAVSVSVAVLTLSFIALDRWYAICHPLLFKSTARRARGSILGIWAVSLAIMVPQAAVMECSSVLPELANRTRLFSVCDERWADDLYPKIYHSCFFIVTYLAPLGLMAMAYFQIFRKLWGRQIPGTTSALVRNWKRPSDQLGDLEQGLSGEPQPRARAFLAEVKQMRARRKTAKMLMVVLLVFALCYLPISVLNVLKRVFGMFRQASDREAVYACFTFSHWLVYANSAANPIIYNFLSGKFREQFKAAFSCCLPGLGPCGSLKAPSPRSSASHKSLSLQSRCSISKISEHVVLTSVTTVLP

human orexin-2 receptor = human orexin-2 receptor (Homo sapiens (Human), UniProt O43614); test: as above; assay type: cell-based; conditions: CHO cells, 3 nM orexin-A, marked values are geometric means of n = 2-6, read-out: IC50 OX2
Sequence of human orexin-2 receptor (O43614 whole entry): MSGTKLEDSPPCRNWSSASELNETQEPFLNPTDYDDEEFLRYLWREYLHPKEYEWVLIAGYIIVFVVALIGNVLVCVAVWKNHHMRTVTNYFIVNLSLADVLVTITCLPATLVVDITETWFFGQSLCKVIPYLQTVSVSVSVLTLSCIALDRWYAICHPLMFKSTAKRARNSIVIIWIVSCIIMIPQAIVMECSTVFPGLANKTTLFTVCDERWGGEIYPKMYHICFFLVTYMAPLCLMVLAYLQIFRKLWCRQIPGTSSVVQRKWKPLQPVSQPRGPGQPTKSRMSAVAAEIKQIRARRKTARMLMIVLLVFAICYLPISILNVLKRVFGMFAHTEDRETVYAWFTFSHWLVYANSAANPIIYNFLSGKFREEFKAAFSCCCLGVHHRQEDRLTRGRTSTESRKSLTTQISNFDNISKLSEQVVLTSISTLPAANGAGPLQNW

[1] = compound incubation time of 10 min

| Structure (SMILES) | IC50 (human orexin-1 receptor; [1]) [nM] | IC50 (human orexin-2 receptor; [1]) [nM] | IC50 (human orexin-1 receptor; compound incubation 120 min) [nM] | IC50 (human orexin-2 receptor; compound incubation 120 min) [nM] |
| --- | --- | --- | --- | --- |
| COc1cc(OC)c(C2CCC(=O)N2Cc2ccc(OC(F)(F)F)cc2)c(OC)c1 (stereo not shown) [Example 108, 1-(4-(trifluoromethoxy)benzyl)-5-(2,4,6-trimethoxyphenyl)pyrrolidin-2-one] | 1930 | 271 | – | – |
| COc1cccc(OC)c1C1CCC(=O)N1Cc1cnc2ccccc2c1 (stereo not shown) [Example 109, 5-(2,6-dimethoxyphenyl)-1-(quinolin-3-ylmethyl)pyrrolidin-2-one] | 227 | 44 | – | – |
| COc1cccc(OC)c1C1CCC(=O)N1Cc1ccc2ccccc2n1 (stereo not shown) [Example 110, 5-(2,6-dimethoxyphenyl)-1-(quinolin-2-ylmethyl)pyrrolidin-2-one] | 409 | 136 | – | – |
| COc1cccc(OC)c1C1CCC(=O)N1Cc1ccc2ccccc2c1 (stereo not shown) [Example 111, 5-(2,6-dimethoxyphenyl)-1-(naphthalen-2-ylmethyl)pyrrolidin-2-one] | 168 | 113 | – | – |
| COc1cccc(OC)c1C1CCC(=O)N1Cc1cnc(OC(F)F)c(Cl)c1 (stereo not shown) [Example 112, 1-((5-chloro-6-(difluoromethoxy)pyridin-3-yl)methyl)-5-(2,6-dimethoxyphenyl)pyrrolidin-2-one] | 646 | 107 | – | – |
| COc1cccc(OC)c1C1CCC(=O)N1Cc1cccc(-c2ccccc2)c1 (stereo not shown) [Example 113, 1-([1,1′-biphenyl]-3-ylmethyl)-5-(2,6-dimethoxyphenyl)pyrrolidin-2-one] | – | – | 29 | 34 |
| COc1cccc(OC)c1C1CCC(=O)N1Cc1ccc(-c2ccccc2)cc1 (stereo not shown) [Example 114, 1-([1,1′-biphenyl]-4-ylmethyl)-5-(2,6-dimethoxyphenyl)pyrrolidin-2-one] | – | – | 149 | 184 |
| COc1cccc(OC)c1C1CCC(=O)N1Cc1cccc(-c2cccnc2)c1 (stereo not shown) [Example 115, 5-(2,6-dimethoxyphenyl)-1-(3-(pyridin-3-yl)benzyl)pyrrolidin-2-one] | – | – | 217 | 249 |
| COc1cccc(OC)c1C1CCC(=O)N1Cc1cccc2ccccc12 (stereo not shown) [Example 116, 5-(2,6-dimethoxyphenyl)-1-(naphthalen-1-ylmethyl)pyrrolidin-2-one] | – | – | 789 | 291 |
| COc1cccc(OC)c1C1CCC(=O)N1Cc1cccc(Oc2ccccc2)c1 (stereo not shown) [Example 117, 5-(2,6-dimethoxyphenyl)-1-(3-phenoxybenzyl)pyrrolidin-2-one] | – | – | 211 | 65 |
| COc1cccc(OC)c1C1CCC(=O)N1Cc1ccc(Oc2ccccc2)cc1 (stereo not shown) [Example 118, 5-(2,6-dimethoxyphenyl)-1-(4-phenoxybenzyl)pyrrolidin-2-one] | – | – | 233 | 58 |
| COc1cccc(OC)c1C1CCC(=O)N1Cc1cccc(-c2ccccn2)c1 (stereo not shown) [Example 119, 5-(2,6-dimethoxyphenyl)-1-(3-(pyridin-2-yl)benzyl)pyrrolidin-2-one] | – | – | 57 | 56 |
| COc1cccc(OC)c1C1CCC(=O)N1Cc1ccnc(-c2ccccc2)c1 (stereo not shown) [Example 120, 5-(2,6-dimethoxyphenyl)-1-((2-phenylpyridin-4-yl)methyl)pyrrolidin-2-one] | – | – | 64 | 121 |
| COc1cccc(OC)c1C1CCC(=O)N1Cc1cccc(-c2ccccc2)n1 (stereo not shown) [Example 121, 5-(2,6-dimethoxyphenyl)-1-((6-phenylpyridin-2-yl)methyl)pyrrolidin-2-one] | – | – | 183 | 105 |
| COc1cccc(OC)c1C1CC(C)C(=O)N1Cc1cccc(-c2ccccc2)c1 (stereo not shown) [Example 122, 1-([1,1′-biphenyl]-3-ylmethyl)-5-(2,6-dimethoxyphenyl)-3-methylpyrrolidin-2-one] | – | – | 18 | 70 |
| COc1cccc(OC)c1C1CC(C)C(=O)N1Cc1cccc(N2CCCC2)c1 (stereo not shown) [Example 123, 5-(2,6-dimethoxyphenyl)-3-methyl-1-(3-(pyrrolidin-1-yl)benzyl)pyrrolidin-2-one] | – | – | 13 | 74 |
| COc1cccc(OC)c1C1CCC(=O)N1Cc1cccc(-c2nccs2)c1 (stereo not shown) [Example 124, 5-(2,6-dimethoxyphenyl)-1-(3-(thiazol-2-yl)benzyl)pyrrolidin-2-one] | – | – | 23 | 89 |
| COc1cccc(OC)c1C1CCC(=O)N1Cc1cccc(-c2csc(C)n2)c1 (stereo not shown) [Example 125, 5-(2,6-dimethoxyphenyl)-1-(3-(2-methylthiazol-4-yl)benzyl)pyrrolidin-2-one] | – | – | 11 | 82 |
| COc1cccc(OC)c1C1CCC(=O)N1Cc1cccc(-n2cccn2)c1 (stereo not shown) [Example 126, 1-(3-(1H-pyrazol-1-yl)benzyl)-5-(2,6-dimethoxyphenyl)pyrrolidin-2-one] | – | – | 165 | 839 |

| Structure (SMILES) | IC50 (human orexin-1 receptor; [1]) [nM] | IC50 (human orexin-2 receptor; [1]) [nM] | IC50 (human orexin-1 receptor; compound incubation 120 min) [nM] | IC50 (human orexin-2 receptor; compound incubation 120 min) [nM] |
| --- | --- | --- | --- | --- |
| COc1cccc(OC)c1C1CCC(=O)N1Cc1ccc2oc3ccccc3c2c1 (stereo not shown) [Example 127, 1-(dibenzo[b,d]furan-2-ylmethyl)-5-(2,6-dimethoxyphenyl)pyrrolidin-2-one] | – | – | 14 | 20 |
| COc1cccc(OC)c1C1CCC(=O)N1Cc1nc2ccccc2s1 (stereo not shown) [Example 128, 1-(benzo[d]thiazol-2-ylmethyl)-5-(2,6-dimethoxyphenyl)pyrrolidin-2-one] | – | – | 3880 | 2050 |
| COc1cccc(OC)c1C1CCC(=O)N1Cc1cccc(N2CCCCC2)c1 (stereo not shown) [Example 129, 5-(2,6-dimethoxyphenyl)-1-(3-(piperidin-1-yl)benzyl)pyrrolidin-2-one] | – | – | 198 | 858 |
| COc1cccc(OC)c1C1CCC(=O)N1Cc1cccc(N2CCCCC2)n1 (stereo not shown) [Example 130, 5-(2,6-dimethoxyphenyl)-1-((6-(piperidin-1-yl)pyridin-2-yl)methyl)pyrrolidin-2-one] | – | – | 636 | 690 |
| COc1cccc(OC)c1C1CC(C)C(=O)N1Cc1ccc2ccccc2c1 (stereo not shown) [Example 131, 5-(2,6-dimethoxyphenyl)-3-methyl-1-(naphthalen-2-ylmethyl)pyrrolidin-2-one] | – | – | 27 | 455 |
| COc1cccc(OC)c1C1CC(C)C(=O)N1Cc1cccc(-c2nccs2)c1 (stereo not shown) [Example 132, 5-(2,6-dimethoxyphenyl)-3-methyl-1-(3-(thiazol-2-yl)benzyl)pyrrolidin-2-one] | – | – | 4 | 44 |
| COc1cccc(OC)c1C1CC(C)C(=O)N1Cc1cccc(-c2csc(C)n2)c1 (stereo not shown) [Example 133, 5-(2,6-dimethoxyphenyl)-3-methyl-1-(3-(2-methylthiazol-4-yl)benzyl)pyrrolidin-2-one] | – | – | 2 | 24 |
| COc1cccc(OC)c1C1CC(C)C(=O)N1Cc1cccc(N2CCCCC2)c1 (stereo not shown) [Example 134, 5-(2,6-dimethoxyphenyl)-3-methyl-1-(3-(piperidin-1-yl)benzyl)pyrrolidin-2-one] | – | – | 37 | 157 |
| COc1cccc(OC)c1C1CC(C)C(=O)N1Cc1cccc(-n2cccn2)c1 (stereo not shown) [Example 135, 1-(3-(1H-pyrazol-1-yl)benzyl)-5-(2,6-dimethoxyphenyl)-3-methylpyrrolidin-2-one] | – | – | 23 | 264 |
| COc1cccc(OC)c1C1CCC(=O)N1Cc1cccc(-c2noc(C)n2)c1 (stereo not shown) [Example 136, 5-(2,6-dimethoxyphenyl)-1-(3-(5-methyl-1,2,4-oxadiazol-3-yl)benzyl)pyrrolidin-2-one] | – | – | 219 | 547 |
| COc1cccc(OC)c1C1CC(C)C(=O)N1Cc1ccc2oc3ccccc3c2c1 (stereo not shown) [Example 137, 1-(dibenzo[b,d]furan-2-ylmethyl)-5-(2,6-dimethoxyphenyl)-3-methylpyrrolidin-2-one] | – | – | 2 | 5 |
| COc1cccc(OC)c1C1CC(C)C(=O)N1Cc1cccc(-c2ccccc2)n1 (stereo not shown) [Example 138, 5-(2,6-dimethoxyphenyl)-3-methyl-1-((6-phenylpyridin-2-yl)methyl)pyrrolidin-2-one] | – | – | 32 | 29 |
| COc1cccc(OC)c1C1CC(C)C(=O)N1Cc1ccnc(-c2ccccc2)c1 (stereo not shown) [Example 139, 5-(2,6-dimethoxyphenyl)-3-methyl-1-((2-phenylpyridin-4-yl)methyl)pyrrolidin-2-one] | – | – | 35 | 172 |
| COc1cccc(OC)c1C1CC(C)C(=O)N1Cc1cccc(-c2ccccn2)c1 (stereo not shown) [Example 140, 5-(2,6-dimethoxyphenyl)-3-methyl-1-(3-(pyridin-2-yl)benzyl)pyrrolidin-2-one] | – | – | 10 | 73 |
| COc1cccc(OC)c1C1CC(C)C(=O)N1Cc1cccc(-c2cccnc2)c1 (stereo not shown) [Example 141, 5-(2,6-dimethoxyphenyl)-3-methyl-1-(3-(pyridin-3-yl)benzyl)pyrrolidin-2-one] | – | – | 35 | 28 |
| COc1cccc(OC)c1C1CC(C)C(=O)N1Cc1cccc(-c2ncccn2)c1 (stereo not shown) [Example 142, 5-(2,6-dimethoxyphenyl)-3-methyl-1-(3-(pyrimidin-2-yl)benzyl)pyrrolidin-2-one] | – | – | 11 | 40 |
| COc1cccc(OC)c1C1CC(C)C(=O)N1Cc1cccc(-c2noc(C)n2)c1 (stereo not shown) [Example 143, 5-(2,6-dimethoxyphenyl)-3-methyl-1-(3-(5-methyl-1,2,4-oxadiazol-3-yl)benzyl)pyrrolidin-2-one] | – | – | 27 | 46 |
| COc1cccc(OC)c1C1CC(C)C(=O)N1Cc1cnn(-c2ccccc2)c1 (stereo not shown) [Example 144, 5-(2,6-dimethoxyphenyl)-3-methyl-1-((1-phenyl-1H-pyrazol-4-yl)methyl)pyrrolidin-2-one] | – | – | 223 | 318 |
| COc1cccc(OC)c1C1CC(C)C(=O)N1Cc1csc(-c2ccccc2)n1 (stereo not shown) [Example 145, 5-(2,6-dimethoxyphenyl)-3-methyl-1-((2-phenylthiazol-4-yl)methyl)pyrrolidin-2-one] | – | – | 28 | 54 |
